Here are results for seven compounds from patent US20130053392A1, “CARBONIC ANHYDRASE INHIBITORS” (priority 2010, published 2013).

As a reminder, the Ki is the equilibrium dissociation constant of an inhibitor or competing ligand from its target.

Test [1] has as its system MDA-231 GFP cells. Briefly: Cell migration (scratch wound) assay, MDA-231. The format is cell-based. The settings on record: 33 μM preliminary screen, 24 h, MDA231, FIG. 7/8. The procedure:
A cell migration assay was performed as follows. A coverslip was placed in a 3 cm dish and 0.5×10^6 cells (in 10% FCS-RPMI) was seeded, per 3 cm dish. The cells were left to grow for 24 hours so as to obtain a confluent layer of cells on the coverslip and a scratch was made with a pipette tip (p200) and loosely attached cells were washed off. The medium was replaced with a low serum (0.2% serum) medium to reduce the level of proliferation.
Cells were fixed in buffered formalin and scratches were imaged with ImageJ and the extent of wound closure was calculated.
A series of 11 compounds were assayed in scratch wound assays to evaluate the effect of CA-IX inhibition on cellular migration in air and hypoxia. […] Cells were then cultured in air or hypoxia and migration analysed 24 h later relative to vehicle treated controls.

Test [2] concerns the target T1, hCA I (Homo sapiens, UniProt P00915).
T1 construct: made in house
The test is described as follows: CA-catalysed CO2 hydration stopped-flow inhibition assay, hCA I. The settings on record: Table 2, sulfamides 7 and 8. The format is biochemical. The procedure: (§1) Typically, CA inhibition is measured by assaying for CA-catalysed CO2 hydration activity using an appropriate indicator dye. […] Stopped flow spectrophotometry may used to measure the rate of hydration activity.
(§2) The uncatalyzed rates were determined in the same manner and subtracted from the total observed rates. Stock solutions of inhibitor (0.1 mM) were prepared in distilled-deionized water and dilutions up to 0.01 nM were done thereafter with distilled-deionized water Inhibitor and enzyme solutions were preincubated together for 15 min at room temperature in order to allow for the formation of the E-I complex. The inhibition constants were obtained by non-linear least-squares methods using PRISM 3, as reported earlier,^1,2,3 and represent the mean from at least three different determinations. All enzymes were recombinant ones, obtained as reported earlier.^2,3 • 1. Khalifah, R. G. The carbon dioxide hydration activity of carbonic anhydrase. I. Stop-flow kinetic studies on the native human isoenzymes B and C. […] Alterio, V.; Hilvo, M.; Di Fiore, A.; Supuran, C. T.; Pan, P.; Parkkila, S.; Scaloni, A.; Pastorek, J.; Pastorekova, S.; Pedone, C.; Scozzafava, A.; Monti, S. M.; De Simone, G. Crystal structure of the extracellular catalytic domain of the tumor-associated human carbonic anhydrase IX. […] T. Carbonic anhydrase inhibitors: X-ray and molecular modeling study for the interaction of a fluorescent antitumor sulfonamide with isozyme II and IX. J. Am. Chem. Soc. […] J. Am. Chem. Soc.

Test [3] deals with T2, hCA IX (Homo sapiens, UniProt Q16790).
T2 construct: made in house
Briefly: CA-catalysed CO2 hydration stopped-flow inhibition assay, hCA IX. The format is biochemical. To be noted: for KiCAII/KiCAIX: Table 2, selectivity ratio. The procedure: as §1, §2

Test [4] deals with T3, hCA II (Homo sapiens, UniProt P00918).
T3 construct: made in house
Briefly: CA-catalysed CO2 hydration stopped-flow inhibition assay, hCA II. It is filed as biochemical. The settings on record: Table 2, sulfamides 7 and 8. The procedure: as §1, §2

For test [5], the target named is T4, hCA XII (Homo sapiens, UniProt O43570).
T4 construct: made in house
Briefly: CA-catalysed CO2 hydration stopped-flow inhibition assay, hCA XII. It is filed as biochemical. The settings on record: Table 2, sulfamides 7 and 8. The procedure: as §1, §2

Test [6] has as its system 94/1 CA IX knock down cells (HT-29). Briefly: FC11-489A bis binding, fluorescence staining, 94/1 cells. It is filed as cell-based, human. The settings on record: 100 μM, normoxia, hypoxia, reoxygenation, listed as FC11-489A bis. The procedure:
(§3) Cells were mounted onto slides with Fluorescence Mounting Medium (DAKO) and analyzed with a Zeiss Axioskop fluorescence microscope using FIT-C filter settings.
(§4) Each staining picture was loaded into Image) analysis software (Image J 1.38x NIH USA, http://rsb.info.nih.gov/ij/Java 1.5.0—17), converted to 8-bit images, thresholded to exclude areas without cells and all remaining pixels were analyzed for their intensity.
(§5) For each oxygen condition, for at least 350 pixels fluorescence intensity was analyzed.

Test [7] has as its system EV/2 CA IX expressing cells (HT-29). The test is described as follows: FC11-489A bis binding, plate reader, EV/2 cells. It is filed as cell-based, human. The settings on record: 100 μM. The text has this:
(§6) Plates were placed in a BMG microplate reader FLUOstare Omega using following protocol: Fluorescence intensity—Well scanning using 5×5 scan matrix in a diameter of 10 mm with 10 flashes per scan point, a gain of 1000 and 355 nm-460 nm filter settings.

In test [8] the test system is 94/1 CA IX knock down cells (HT-29). Briefly: FC11-489A bis binding, flow cytometer, 94/1 cells. The settings on record: 100 μM, normoxia, hypoxia, reoxygenation, FACS.
Procedure: (§7) Single suspensions were obtained by passing cells through 70 μm nylon cell strainers (BD Biosciences). Mean fluorescence intensity was analyzed using a FACSort flow cytometer (BD Biosciences) using FIT-C filter settings.
The test system is the same in test [9]. Briefly: FC11-489A bis binding, plate reader, 94/1 cells. The format is cell-based, human. To be noted: 100 μM, normoxia, hypoxia, reoxygenation.
Source text: as §6

Test [10] has as its system EV/2 CA IX expressing cells (HT-29). The test is described as follows: FC11-489A bis binding, flow cytometer, EV/2 cells. To be noted: 100 μM, FACS. (A flow cytometer gives signals particle by particle.)
Procedure: as §7
Test [11] shares this test system. The test is described as follows: FC11-489A bis binding, fluorescence staining, EV/2 cells. The format is cell-based, human. The settings on record: 100 μM. The procedure:
as §3, §4, §5

[12] abbreviates: Table 2, sulfamides 7 and 8, read-out: Ki hCAIX.

Entries after “also recorded” stand apart in the source; their conditions may differ. Like-named read-outs stand apart in the source and are kept apart here.

T1 sequence (P00915 whole entry): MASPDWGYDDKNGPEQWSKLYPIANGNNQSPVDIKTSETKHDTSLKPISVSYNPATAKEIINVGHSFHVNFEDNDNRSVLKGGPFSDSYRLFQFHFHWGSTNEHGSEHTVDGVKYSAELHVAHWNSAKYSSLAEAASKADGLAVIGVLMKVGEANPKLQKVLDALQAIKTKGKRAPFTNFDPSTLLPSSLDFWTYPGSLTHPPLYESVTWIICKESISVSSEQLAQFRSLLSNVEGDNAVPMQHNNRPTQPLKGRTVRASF
T4 sequence (O43570 25-354): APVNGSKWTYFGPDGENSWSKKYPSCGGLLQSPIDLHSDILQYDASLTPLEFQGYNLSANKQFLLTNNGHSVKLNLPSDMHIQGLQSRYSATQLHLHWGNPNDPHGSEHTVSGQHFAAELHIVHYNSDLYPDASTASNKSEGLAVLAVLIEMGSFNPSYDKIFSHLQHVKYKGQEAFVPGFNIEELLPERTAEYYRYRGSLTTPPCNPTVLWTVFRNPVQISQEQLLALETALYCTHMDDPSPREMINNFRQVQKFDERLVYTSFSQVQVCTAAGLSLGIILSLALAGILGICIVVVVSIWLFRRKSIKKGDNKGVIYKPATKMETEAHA

In the case of `NS(=O)(=O)Oc1ccc(NC(=O)Nc2ccc(Oc3ccccc3)cc2)cc1` [Compound 3h, 4-[(4-phenoxyphenyl)ureido]phenyl sulfamate], the “cellular migration in air and hypoxia relative to vehicle” value in [1] was “inhibitory effects against hypoxic cell migration at concentrations that had minimal effects in air”.

In the case of `NS(=O)(=O)Oc1ccc(NC(=O)Nc2c(F)c(F)c(F)c(F)c2F)cc1` [Compound 3i, 4-[(pentafluorophenyl)ureido]phenyl sulfamate], the “cellular migration in air and hypoxia relative to vehicle” value in test [1] is on record as “inhibitory effects against hypoxic cell migration at concentrations that had minimal effects in air”.

With `CC(=O)c1ccc(NC(=O)NCc2ccc(NS(N)(=O)=O)cc2)cc1` [Compound 8e], the Ki was 3590 nM in test [2], 24 nM in test [3] (setting [12]), 138 nM in test [4] and 14 nM in [5]. Also, the KiCAII/KiCAIX in test [3] is recorded as 5.8.

In the case of `CN(C)c1ccc(NC(=O)NCc2ccc(NS(N)(=O)=O)cc2)cc1` [Compound 8f], the Ki in [2] was found to be 1340 nM; in [3] (setting [12]) it was 12 nM; in test [4], 48 nM; in [5] it was 22 nM. In addition, the KiCAII/KiCAIX in test [3] is 4.0.

For `Cc1ccccc1NC(=O)NCc1ccc(NS(N)(=O)=O)cc1` [Compound 8g], the Ki in [2] turned out to be 3800 nM; in test [3] (setting [12]), 21 nM; in test [4], 343 nM; in [5], 30 nM. In addition, in test [3], the KiCAII/KiCAIX is 16.3.

Consider `NS(=O)(=O)Nc1ccc(CNC(=O)Nc2ccccc2Cl)cc1` [Compound 8h], for which the Ki in test [2] amounted to 1650 nM; in [3] (setting [12]), 17 nM; in test [4] it was 47 nM; in [5] it was 12 nM. The KiCAII/KiCAIX in test [3] came out at 2.8.

With `NS(=O)(=O)Oc1ccc(NC(=S)Nc2ccc(-c3c4ccc(=O)cc-4oc4cc(O)ccc34)c(C(=O)O)c2)cc1` [Compound 20, 2-(3-Hydroxy-6-oxo-6H-xanthen-9-yl)-5-(3-(4-(sulfamoyloxy)phenyl)thioureido)benzoic acid], the “binding at CA IX knock down cells” value in test [6] is given as “lower for all experimental conditions compared to the EV/2 cells; also recorded: No significant binding”; in test [8], “No significant binding”; in test [9] it was “No significant binding”. Also, the “binding upon reoxygenation versus hypoxic conditions” value in test [7] (24 h hypoxia then 1 h air) and in [10] (24 h hypoxia then 1 h air) was “dramatically reduced” each time. Moreover, the “binding (fluorescence intensity), hypoxia versus normoxia” value in test [7] (hypoxia 0.2% 24 h, FIG. 12) is on record as “significant higher binding”. This compound showed a Ki in [3] (Table 3, stopped flow assay) of 14 nM. In addition, in [10] (hypoxia 0.2% 24 h, FIG. 13), the “binding (mean fluorescence intensity), hypoxia versus normoxia” value was “significant higher binding”. Besides, the binding upon reoxygenation result in test [11] (24 h hypoxia then 1 h air, listed as FC11-489A bis) is reported as “reduced upon reoxygenation to levels similar as normoxia exposure; also recorded: dramatically reduced”. Besides, the “binding (immunofluorescence), hypoxia versus normoxia” value in test [11] (hypoxia 0.2% 24 h, FIG. 14/15, listed as FC11-489A bis) is “significant higher binding”.
